# Measurements reported in patent US8084502B2, “Use of agmatine for protection of retinal ganglion cells” (priority 2007, dated 2011).
# What was measured:
# Type in all cases: cell-based, rat
# [1] = test system: RGC-5; assay: LDH assay, hypoxia-induced cell death; conditions: for LDH release: relative to maximum LDH release = 100; for concentration at which cell death was reduced significantly (LDH assay): preliminary studies
# Protocol: The RGC-5 cell line, which is a RGC line developed from post-natal Sprague-Dawley rats, was grown in modified Dulbecco's Modified Eagle's Medium (DMEM; Gibco) supplemented with 10% of heat inactivated fetal bovine serum (Gibco) and 100 U/mL of penicillin and 100 μg/mL of streptomycin (Gibco). The cells were passaged every 2 to 3 days, and the cultures incubated at 37° C. in 5% of CO2 and air. […] For all experiments, cells were used at an 80% confluence.
# Cultures were transferred into a closed hypoxic chamber (Form a Scientific Co.) in which oxygen level (5% of O2, 5% of CO2, 90% of N2) and temperature (37° C.) were controlled. After washing twice with deoxygenated serum-free DMEM, cells were maintained in the hypoxic chamber. Control cells were not exposed to hypoxia. Agmatine or BDNF were added to the culture medium at the start of injury as indicated.
# Cell viability was quantified by measurement of LDH released by injured cells after hypoxic or normoxic culture for 12, 24, and 48 hours. LDH release is expressed as a value relative to the value of 100, which represents the maximum LDH release that occurred after freezing of each culture at −70° C. overnight and rapid thawing, which induces nearly complete cell damage. All experiments were performed in at least quadruplicate and repeated at least eight times using cell cultures derived from different platings. The preliminary studies with the LDH assay tested agmatine concentrations from 10 μM to 1 mM and BDNF concentrations from 5 ng/mL to 100 ng/mL.
# [2] = test system: ERK; assay: Western blot, phospho-ERK in hypoxic RGC-5; conditions: agmatine 100 μM, BDNF 10 ng/mL
# Protocol: (§1) The RGC-5 cell line, which is a RGC line developed from post-natal Sprague-Dawley rats, was grown in modified Dulbecco's Modified Eagle's Medium (DMEM; Gibco) supplemented with 10% of heat inactivated fetal bovine serum (Gibco) and 100 U/mL of penicillin and 100 μg/mL of streptomycin (Gibco). The cells were passaged every 2 to 3 days, and the cultures incubated at 37° C. in 5% of CO2 and air. […] For all experiments, cells were used at an 80% confluence. Cultures were transferred into a closed hypoxic chamber (Form a Scientific Co.) in which oxygen level (5% of O2, 5% of CO2, 90% of N2) and temperature (37° C.) were controlled. […] The protein concentrations in the resultant supernatants were measured with the Bradford reagent, and equal amounts of protein (40 μg) were boiled in Laemmli sample buffer, followed by being resolved by 10 or 15% SDS-PAGE. The proteins were transferred to polyvinylidene fluoride membranes (Immobilon; Millipore, Billerica, Mass.) and then probed overnight with antibodies against JNK, ERK p44/42, p38, NF-κB p65, phospho-JNK, phospho-ERK p44/42, phospho-p38, phospho-NF-κB, (3-actin and histone 3 as indicated (diluted 1:1000). The immunoreactive bands were detected with horseradish peroxidase-conjugated secondary antibodies and visualized by enhanced chemiluminescence.
# [3] = test system: p38; assay: Western blot, phospho-p38 in hypoxic RGC-5; conditions: agmatine 100 μM, BDNF 10 ng/mL
# Protocol: as §1
# [4] = test system: Total MAPKs (JNK, ERK, and p38); assay: Western blot, total MAPKs in hypoxic RGC-5
# Protocol: as §1
# [5] = test system: NF-κB; assay: Western blot, NF-κB in nuclear and cytosolic fraction of hypoxic RGC-5; conditions: for increase in phospho-NF-κB, nuclear fraction / increase in total NF-κB expression, cytoplasmic fraction: hypoxia 1 hour; for total NF-κB and histone 3, nuclear fraction: hypoxic RGC-5
# Protocol: The RGC-5 cell line, which is a RGC line developed from post-natal Sprague-Dawley rats, was grown in modified Dulbecco's Modified Eagle's Medium (DMEM; Gibco) supplemented with 10% of heat inactivated fetal bovine serum (Gibco) and 100 U/mL of penicillin and 100 μg/mL of streptomycin (Gibco). The cells were passaged every 2 to 3 days, and the cultures incubated at 37° C. in 5% of CO2 and air. […] For all experiments, cells were used at an 80% confluence. Cultures were transferred into a closed hypoxic chamber (Form a Scientific Co.) in which oxygen level (5% of O2, 5% of CO2, 90% of N2) and temperature (37° C.) were controlled. After washing twice with deoxygenated serum-free DMEM, cells were maintained in the hypoxic chamber. Control cells were not exposed to hypoxia. Agmatine or BDNF were added to the culture medium at the start of injury as indicated. For fraction of cytosolic and nuclear proteins, cells were lysed with lysis buffer A (10 mM of HEPES (pH 7.4), 10 mM of KCl, 0.1 mM of EDTA, 0.1 mM of EGTA, 1 mM of DTT, 10 mM of Na3VO4, 50 mM of NaF, 1 mM of PMSF, 1 μg/mL of aprotinin, 1 μg/mL of leupeptin, 1 μg/mL of pepstatin) on ice for 15 minutes, and 10% of NP-40 was then added thereto. After vortexing for 10 seconds, lysates were centrifuged at 15,000 g at 4° C. for 1 minute. The supernatent was collected from the cytosolic fraction. The pellet was resuspended in lysis buffer C (20 mM of HEPES (pH 7.4), 400 mM of NaCl, 1 mM of EDTA, 1% of glycerol, 1 mM of DTT, 10 mM of Na3VO4, 50 mM of NaF, 1 mM of PMSF, 1 μg/mL of aprotinin, 1 μg/mL of leupeptin, 1 μg/mL of pepstatin) on ice for 30 minutes. Lysates were centrifuge at 15,000 g at 4° C. for 15 minutes. The supernatent was collected from the nuclear fraction. The protein concentrations in the resultant supernatants were measured with the Bradford reagent, and equal amounts of protein (40 μg) were boiled in Laemmli sample buffer, followed by being resolved by 10 or 15% SDS-PAGE. The proteins were transferred to polyvinylidene fluoride membranes (Immobilon; Millipore, Billerica, Mass.) and then probed overnight with antibodies against JNK, ERK p44/42, p38, NF-κB p65, phospho-JNK, phospho-ERK p44/42, phospho-p38, phospho-NF-κB, (3-actin and histone 3 as indicated (diluted 1:1000). The immunoreactive bands were detected with horseradish peroxidase-conjugated secondary antibodies and visualized by enhanced chemiluminescence.
Compound,"suppression of LDH release compared with BDNF ([1]; hypoxia 48 hours, 100 μM of agmatine vs 10 ng/mL BDNF, P<0.001)","LDH release ([1]; hypoxia 48 hours, 100 μM of agmatine) [%]","LDH release ([1]; hypoxia 48 hours, 500 μM of agmatine) [%]",concentration at which cell death was reduced significantly (LDH assay) ([1]; tested 10 μM to 1 mM) [µM],expression of phospho-ERKs [2],expression of phospho-p38 [3],"Total MAPKs (JNK, ERK, and p38) and β-actin [4]","increase in phospho-NF-κB, nuclear fraction [5]","increase in total NF-κB expression, cytoplasmic fraction [5]","total NF-κB and histone 3, nuclear fraction [5]","LDH release ([1]; hypoxia 48 hours, 10 ng/mL of BDNF) [%]","LDH release ([1]; hypoxia 48 hours, 50 ng/mL of BDNF) [%]","LDH release ([1]; hypoxia 48 hours, 100 ng/mL of BDNF) [%]",concentration at which cell death was reduced significantly (LDH assay) ([1]; tested 5 ng/mL to 100 ng/mL) [ng/mL]
N=C(N)NCCCCN [agmatine],more effective in suppressing LDH release than 10 ng/mL BDNF,25.60,27.09,≥ 100,did not significantly affect,had no effect,no significant changes,suppressed,inhibited,no significant changes,–,–,–,–
"BDNF: recombinant human BDNF (R&D System), well-known protective neurotrophin for RGCs, used as comparator",–,–,–,–,"completely blocked the expression of phospho-ERKs after exposure to hypoxia for 3 and 6 hours, but had no effect thereafter",only blocked the expression of phospho-p38 at 6 hours,no significant changes,not,not,no significant changes,30.10,33.67,36.06,≥ 10
